Where two headings read alike, the source gives them in different places. Where no end group is shown, it is not given here. [ ]: non-standard residue; d: D form.
Tests used:
M. fortuitum = assay: MIC against M. fortuitum; type: cell-based, Mycobacterium fortuitum; conditions: M. fortuitum (ATCC 6841); CAAT media
M. avium = assay: MIC against M. avium; type: cell-based, Mycobacterium avium; conditions: M. avium (ATCC 700898); CAAT media
M. intracellulare = assay: MIC against M. intracellulare; type: cell-based, Mycobacterium intracellulare; conditions: M. intracellulare (ATCC 13950); CAAT media
M. tuberculosis = type: cell-based, Mycobacterium tuberculosis
A. dolens = assay: MIC by broth microdilution against A. dolens; type: cell-based, Achromobacter dolens; conditions: A. dolens isolates; for MIC Range: in µg/mL
Experimental: (§1) MIC values were determined using a modification of the standard broth microdilution reference method defined by the Clinical and Laboratory Standards Institute (CLSI), CLSL. 2015. Methods for Dilution Antimicrobial Susceptibility Tests for Bacteria That Grow Aerobically; Approved Standard-10th Edition. Clinical and Laboratory Standards Institute, Wayne, PA. The modification was based on the replacement of Mueller Hinton Broth with either CAA media (with and without NaCl) or CAA supplemented with 2.5% human serum. MIC is the minimum concentration of peptide sufficient to suppress at least 80% of the bacterial growth compared to control.
(§2) Based on these nine most prevalent strains, direct lytic agents, including GN370, AM1, AM2, and AM3, were evaluated against various isolates from each of the 9 strains. MICs and MBECs (Example 3) were determined, and a sputum inhibition test was conducted, as described below in Example 5.
(§3) The MICs for were determined as described below using the broth microdilution method for meropenem, GN370, AM1, AM2, and AM3. The results are shown below in Tables 8-12.

B. cenocepacia = assay: MIC by broth microdilution against B. cenocepacia; type: cell-based, Burkholderia cenocepacia; conditions: B. cenocepacia isolates
Experimental: as §1, §2, §3

B. gladioli = assay: MIC by broth microdilution against B. gladioli; type: cell-based, Burkholderia gladioli; conditions: B. gladioli isolates; for MIC Range: in µg/mL
Experimental: as §1, §2, §3

P. apista = assay: MIC by broth microdilution against P. apista; type: cell-based, Pandoraea apista; conditions: P. apista isolates
Experimental: as §1, §2, §3

A. xylosoxidans = system: A. xylosoxidans
Experimental: (§4) Biofilms are then washed and treated with e.g., a 2-fold dilution series of the lysin in TSBg at e.g., 37° C. for 24 hours. After treatment, wells are washed, air-dried at e.g., 37° C. and stained with e.g., 0.05% crystal violet for 10 minutes.
(§5) The antibiofilm activity of GN370, AM1, AM2, and AM3 was evaluated against various Gram-negative bacteria prevalent in cystic fibrosis patients, including P. aeruginosa, S. maltophilia, and A. xylosoxidans.
(§6) The MBEC (after 2-hour treatments) was determined as described in Jones and Wozniak, PsI Produced by Mucoid Pseudomonas aeruginosa Contributes to the Establishment of Biofilms and Immune Evasion, Am. […] Microbiol.

B. multivorans = system: B. multivorans
Experimental: as §4, §5, §6

S. maltophilia = conditions: for antibiofilm activity (MBEC) against S. maltophilia: 2-hour treatments
Experimental: as §4, §5, §6

P. aeruginosa [1] = assay: Time-kill assay in cystic fibrosis patient sputum, P. aeruginosa; type: cell-based, Pseudomonas aeruginosa; conditions: for effect of sputum on antibacterial activity: 10% CF sputum vs no sputum; for killing by 1 hour, maintained by 24 hours: time-kill
Text: Sputum from 5 cystic fibrosis patients was pooled. The resulting mixture was not filtered, as it was very dense and not amenable to sterilization by filtration. Sputum is known to be a complex mixture of DNA, carbohydrates, and lipids ([…], 2016). As used herein, the term “sputum” refers to the mucus present in the respiratory tract of an animal, such as a human. Sputum may increase in thickness due to the irritation or infection, including bacterial infection, and in some instances, may be expelled by the animal while coughing. In certain instances, cystic fibrosis may be characterized by the presence of a thick, sticky mucus or sputum present in the lungs of cystic fibrosis patients. The activity of GN370, AM1, AM2, AM3, and meropenem was determined in the sputum using a time-kill assay format as disclosed in Zhang et al., Antimicrobial peptide therapeutics for cystic fibrosis, Antimicrobial Agents Chemother. 2005; 49(7):2921-2927. […] Untreated controls were included in addition to pretreatment plating (t=0) for a baseline CFU determination. Activity was also determined in the absence of sputum for comparison to activity observed in the presence of sputum.

A. ruhlandii = type: cell-based, Achromobacter ruhlandii
Experimental: The MBEC (after 2-hour treatments) was determined as described in Jones and Wozniak, PsI Produced by Mucoid Pseudomonas aeruginosa Contributes to the Establishment of Biofilms and Immune Evasion, Am. Soc. Microbiol. 2017, 8(3):e00864-17. Meropenem and tobramycin were included as controls and were both poorly active, with MBEC90 values of >256 μg/mL (data not shown).

P. aeruginosa [2] = conditions: for MIC: P. aeruginosa test organism of the sputum time-kill assay; for activity (MIC) against P. aeruginosa isolates: all tested isolates, Tables 8-12
P. aeruginosa [3] = conditions: for antibiofilm activity (MBEC) against P. aeruginosa: 2-hour treatments
[4] = M. tuberculosis (ATCC 35817), (ADC, T) media
[5] = M. tuberculosis strain TN8109_LB (MDR), 7H9 broth, 20 days
[6] = M. tuberculosis strain TN8562_M33 (susc), 7H9 broth, 20 days
[7] = M. tuberculosis strain TN10525_LL (MDR), 7H9 broth, 20 days
[8] = M. tuberculosis strain TN10571_KY (MDR), 7H9 broth, 20 days
[9] = M. tuberculosis strain TN12657_KQ15 (IS), 7H9 broth, 20 days
[10] = M. tuberculosis strain TN13923_HD17 (susc), 7H9 broth, 20 days
[11] = M. tuberculosis strain TN18349_W738 (susc), 7H9 broth, 20 days
[12] = M. tuberculosis strain TN34503_001 (susc), 7H9 broth, 20 days
[13] = α-hemolytic P. aeruginosa isolates (n = 13)

Substance: MRLKMARRRYRLPRRRSRRLFSRTALRMHPRNRLRRIMRGGIRF [AM1]
- MIC (M. fortuitum): 2 µg/mL
- MIC (M. avium): 1 Tg/mL
- MIC (M. intracellulare): 0.5 µg/mL
- MIC (M. tuberculosis; [4]): 8 µg/mL
- MIC (M. tuberculosis; [5]): 4 µg/mL
- MIC (M. tuberculosis; [6]): 4 µg/mL
- MIC (M. tuberculosis; [7]): 8 µg/mL
- MIC (M. tuberculosis; [8]): 2 µg/mL
- MIC (M. tuberculosis; [9]): 16 µg/mL
- MIC (M. tuberculosis; [10]): 16 µg/mL
- MIC (M. tuberculosis; [11]): 0.5 µg/mL
- MIC (M. tuberculosis; [12]): 0.5 µg/mL
- MIC50 (A. dolens): 1 µg/mL
- MIC90 (A. dolens): 2 µg/mL
- MIC Range (A. dolens): 0.06-4
- MIC50 (B. cenocepacia): > 128 µg/mL
- MIC90 (B. cenocepacia): > 128 µg/mL
- MIC50 (B. gladioli): 8 µg/mL
- MIC90 (B. gladioli): 64 µg/mL
- MIC Range (B. gladioli): 0.03-128
- MIC50 (P. apista): 64 µg/mL
- MIC90 (P. apista): > 128 µg/mL
- MBEC50 (A. xylosoxidans): 0.5 µg/mL
- MBEC90 (A. xylosoxidans): 1 µg/mL
- MBEC Range (A. xylosoxidans): 0.125 to 2 µg/mL
- antibiofilm activity (MBEC) against A. xylosoxidans (A. xylosoxidans; 2-hour treatments): highly active
- MBEC50 (B. multivorans): 2 µg/mL
- MBEC90 (B. multivorans): 4 µg/mL
- MBEC Range (B. multivorans): 2 to 4 µg/mL
- antibiofilm activity (MBEC) against B. multivorans (B. multivorans; 2-hour treatments): highly active
- MBEC50 (S. maltophilia): 1 µg/mL
- MBEC90 (S. maltophilia): 2 µg/mL
- MBEC Range (S. maltophilia): 0.25 to 2 µg/mL
- antibiofilm activity (MBEC) against S. maltophilia (S. maltophilia): highly active
- effect of sputum on antibacterial activity (P. aeruginosa [1]): not inhibited
- Log10 CFU/mL of sputum (P. aeruginosa [1]; absence of sputum, 1 hr): 2.3 Log10 CFU/mL of sputum
- Log10 CFU/mL of sputum (P. aeruginosa [1]; absence of sputum, 3 hr): 2.3 Log10 CFU/mL of sputum
- Log10 CFU/mL of sputum (P. aeruginosa [1]; absence of sputum, 24 hr): 2.3 Log10 CFU/mL of sputum
- Log10 CFU/mL of sputum (P. aeruginosa [1]; presence of 10% sputum, 1 hr): 2.3 Log10 CFU/mL of sputum
- Log10 CFU/mL of sputum (P. aeruginosa [1]; presence of 10% sputum, 3 hr): 2.3 Log10 CFU/mL of sputum
- Log10 CFU/mL of sputum (P. aeruginosa [1]; presence of 10% sputum, 24 hr): 2.3 Log10 CFU/mL of sputum
- killing by 1 hour, maintained by 24 hours (P. aeruginosa [1]): complete killing
- MBEC50 (A. ruhlandii): 16 µg/mL
- MBEC90 (A. ruhlandii): 16 µg/mL
- MBEC Range (A. ruhlandii): 2 to 16 µg/mL
- AM1 MIC50 (P. aeruginosa [2]): 0.25 µg/mL
- AM1 MIC90 (P. aeruginosa [2]): 0.5 µg/mL
- MIC50 (P. aeruginosa [2]): 0.25 µg/mL
- MIC90 (P. aeruginosa [2]): 0.5 µg/mL
- MIC Range (P. aeruginosa [2]; MDR P. aeruginosa isolates (n = 13), in µg/mL): 0.016-0.5
- MIC50 (P. aeruginosa [2]; P. aeruginosa isolates): 0.25 µg/mL
- MIC90 (P. aeruginosa [2]; P. aeruginosa isolates): 0.5 µg/mL
- MIC (P. aeruginosa [2]): (MIC = 1)
- activity (MIC) against P. aeruginosa isolates (P. aeruginosa [2]): highly active
- AM1 MIC Range (P. aeruginosa [2]; carbapenem-resistant P. aeruginosa isolates (n = 17)): 0.016-0.5
- MIC50 (P. aeruginosa [2]; [13]): 0.25 µg/mL
- MIC90 (P. aeruginosa [2]; [13]): 0.5 µg/mL
- MBEC50 (P. aeruginosa [3]): 0.5 µg/mL
- MBEC90 (P. aeruginosa [3]): 1 µg/mL
- MBEC Range (P. aeruginosa [3]): 0.064 to 2 µg/mL
- antibiofilm activity (MBEC) against P. aeruginosa (P. aeruginosa [3]): highly active

Substance: M[dR]L[dK]MA[dR][dR][dR]Y[dR]LP[dR][dR][dR]S[dR][dR]LFS[dR]TAL[dR]MHP[dR]N[dR]L[dR][dR]IM[dR]GGI[dR]F [AM2]
- MIC (M. fortuitum): 4 µg/mL
- MIC (M. avium): 1 Tg/mL
- MIC (M. intracellulare): 0.5 µg/mL
- MIC (M. tuberculosis; [4]): 8 µg/mL
- MIC (M. tuberculosis; [5]): 2 µg/mL
- MIC (M. tuberculosis; [6]): 2 µg/mL
- MIC (M. tuberculosis; [7]): 8 µg/mL
- MIC (M. tuberculosis; [8]): 4 µg/mL
- MIC (M. tuberculosis; [9]): 4 µg/mL
- MIC (M. tuberculosis; [10]): 8 µg/mL
- MIC (M. tuberculosis; [11]): 2 µg/mL
- MIC (M. tuberculosis; [12]): 8 µg/mL
- MIC50 (A. dolens): 4 µg/mL
- MIC90 (A. dolens): 8 µg/mL
- MIC Range (A. dolens): 0.016-16
- MIC50 (B. cenocepacia): > 128 µg/mL
- MIC90 (B. cenocepacia): > 128 µg/mL
- MIC50 (B. gladioli): 4 µg/mL
- MIC90 (B. gladioli): 8 µg/mL
- MIC Range (B. gladioli): 0.016-16
- MIC50 (P. apista): > 128 µg/mL
- MIC90 (P. apista): > 128 µg/mL
- MBEC50 (A. xylosoxidans): 2 µg/mL
- MBEC90 (A. xylosoxidans): 8 µg/mL
- MBEC Range (A. xylosoxidans): 0.125 to 32 µg/mL
- MBEC50 (B. multivorans): 2 µg/mL
- MBEC90 (B. multivorans): 16 µg/mL
- MBEC Range (B. multivorans): 1 to 16 µg/mL
- MBEC50 (S. maltophilia): 1 µg/mL
- MBEC90 (S. maltophilia): 2 µg/mL
- MBEC Range (S. maltophilia): 0.125 to 4 µg/mL
- antibiofilm activity (MBEC) against S. maltophilia (S. maltophilia): highly active
- effect of sputum on antibacterial activity (P. aeruginosa [1]): not inhibited
- Log10 CFU/mL of sputum (P. aeruginosa [1]; absence of sputum, 1 hr): 2.3 Log10 CFU/mL of sputum
- Log10 CFU/mL of sputum (P. aeruginosa [1]; absence of sputum, 3 hr): 2.3 Log10 CFU/mL of sputum
- Log10 CFU/mL of sputum (P. aeruginosa [1]; absence of sputum, 24 hr): 2.3 Log10 CFU/mL of sputum
- Log10 CFU/mL of sputum (P. aeruginosa [1]; presence of 10% sputum, 1 hr): 2.3 Log10 CFU/mL of sputum
- Log10 CFU/mL of sputum (P. aeruginosa [1]; presence of 10% sputum, 3 hr): 2.3 Log10 CFU/mL of sputum
- Log10 CFU/mL of sputum (P. aeruginosa [1]; presence of 10% sputum, 24 hr): 2.3 Log10 CFU/mL of sputum
- killing by 1 hour, maintained by 24 hours (P. aeruginosa [1]): complete killing
- MBEC50 (A. ruhlandii): 8 µg/mL
- MBEC90 (A. ruhlandii): 32 µg/mL
- MBEC Range (A. ruhlandii): 1 to 32 µg/mL
- MIC50 (P. aeruginosa [2]; P. aeruginosa isolates): 0.06 µg/mL
- MIC90 (P. aeruginosa [2]; P. aeruginosa isolates): 0.25 µg/mL
- MIC Range (P. aeruginosa [2]; P. aeruginosa isolates): 0.016-0.5^
- MIC (P. aeruginosa [2]): (MIC = 0.25)
- activity (MIC) against P. aeruginosa isolates (P. aeruginosa [2]): highly active
- MBEC50 (P. aeruginosa [3]): 0.25 µg/mL
- MBEC90 (P. aeruginosa [3]): 1 µg/mL
- MBEC Range (P. aeruginosa [3]): 0.016 to 2 µg/mL
- antibiofilm activity (MBEC) against P. aeruginosa (P. aeruginosa [3]): highly active
